Measurements: the supplement of paper PMC4932681
Where a name gives a salt, the structure may show the parent alone.

Experiments:
Experiment in all cases: viability inhibition at highest dose (% inhibition); higher = more growth inhibition
BT-474 = conditions: 72 h
Method: (§1)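 Percent inhibition of viability (CellTiter-Glo, 72 h) at the highest tested concentration (D5), normalised to DMSO (0%) and 100 µM benzethonium chloride (100%). Resistant lines and the 'in 1µM tamoxifen' arms were tested in 1 µM 4-OH-tamoxifen.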

ZR-75-1 Tam2 = conditions: 4-OH-tamoxifen in medium 1 µM; 72 h
Method: as §1

BT-474 Tam2 = conditions: 4-OH-tamoxifen in medium 1 µM; 72 h
Method: as §1

MCF-7 = conditions: 72 h
Method: as §1

MCF-7 Tam1 = conditions: 4-OH-tamoxifen in medium 1 µM; 72 h
Method: as §1

T-47D = conditions: 72 h
Method: as §1

ZR-75-1 = conditions: 72 h
Method: as §1

BT-474 Tam1 = conditions: 4-OH-tamoxifen in medium 1 µM; 72 h
Method: as §1

T-47D Tam2 = conditions: 4-OH-tamoxifen in medium 1 µM; 72 h
Method: as §1

ZR-75-1 Tam1 = conditions: 4-OH-tamoxifen in medium 1 µM; 72 h
Method: as §1

T-47D Tam1 = conditions: 4-OH-tamoxifen in medium 1 µM; 72 h
Method: as §1

| SMILES | viability inhibition at highest dose (BT-474; 4-OH-tamoxifen in medium 0 µM) | viability inhibition at highest dose (BT-474; 4-OH-tamoxifen in medium 1 µM) | viability inhibition at highest dose (ZR-75-1 Tam2) | viability inhibition at highest dose (BT-474 Tam2) | viability inhibition at highest dose (MCF-7; 4-OH-tamoxifen in medium 0 µM) | viability inhibition at highest dose (MCF-7; 4-OH-tamoxifen in medium 1 µM) | viability inhibition at highest dose (MCF-7 Tam1) | viability inhibition at highest dose (T-47D; 4-OH-tamoxifen in medium 0 µM) | viability inhibition at highest dose (T-47D; 4-OH-tamoxifen in medium 1 µM) | viability inhibition at highest dose (ZR-75-1; 4-OH-tamoxifen in medium 0 µM) | viability inhibition at highest dose (ZR-75-1; 4-OH-tamoxifen in medium 1 µM) | viability inhibition at highest dose (BT-474 Tam1) | viability inhibition at highest dose (T-47D Tam2) | viability inhibition at highest dose (ZR-75-1 Tam1) | viability inhibition at highest dose (T-47D Tam1) |
| --- | --- | --- | --- | --- | --- | --- | --- | --- | --- | --- | --- | --- | --- | --- | --- |
| O=C(/C=C/c1cccc(S(=O)(=O)Nc2ccccc2)c1)NO [Belinostat  (PXD101)] (drug 10000 nM) | 91.3 | 97.1 | 51.5 | 77.2 | 89.5 | 86.8 | 22.8 | 95.6 | 94.8 | 38.9 | 38.7 | 89 | 70.4 | 39.5 | 92 |
| Cn1c(CCCC(=O)O)nc2cc(N(CCCl)CCCl)ccc21 [Bendamustine (hydrochloride hydrate)] (drug 10000 nM) | -0.115 | -10.7 | 5.86 | -4.38 | 17.8 | -4.09 | -4.92 | -0.126 | -12.1 | -7.06 | -2.1 | -12.7 | -2.82 | -0.263 | 0.785 |
| C=C(c1ccc(C(=O)O)cc1)c1cc2c(cc1C)C(C)(C)CCC2(C)C [Bexarotene] (drug 10000 nM) | 1.74 | 20.9 | 9.24 | 0.869 | -1.91 | 5.85 | 19.2 | 13.7 | 14.2 | 15.4 | 8.83 | -1.85 | 9.65 | -2.13 | 25.9 |
| CC(O)(CS(=O)(=O)c1ccc(F)cc1)C(=O)Nc1ccc(C#N)c(C(F)(F)F)c1 (stereo not given) [Bicalutamide] (drug 10000 nM) | -18.1 | -8.62 | -0.971 | -6.57 | -0.676 | 5.7 | -6.64 | -16.4 | 10.8 | -10.4 | 1.52 | -10.4 | 14.4 | -0.584 | 5.87 |
| CCNC(=O)CCC/C=C\C[C@@H]1[C@@H](/C=C/[C@@H](O)CCc2ccccc2)[C@H](O)C[C@@H]1O [Bimatoprost] (drug 5500 nM) | -10.2 | -22.1 | -15.8 | -16.2 | 10.1 | -1.71 | -5.08 | -18.2 | -17.9 | -13.7 | -4.04 | -14.6 | -4.37 | -5.04 | -9.33 |
| Cc1c(N)nc([C@H](CC(N)=O)NC[C@H](N)C(N)=O)nc1C(=O)N[C@H](C(=O)N[C@H](C)[C@@H](O)[C@H](C)C(=O)N[C@H](C(=O)NCCc1nc(-c2nc(C(=O)NCCC[S+](C)C)cs2)cs1)[C@@H](C)O)[C@@H](OC1OC(CO)C(O)C(O)C1OC1OC(CO)C(O)C(OC(N)=O)C1O)c1cnc[nH]1 (stereo not given in full) [Bleomycin] (drug 10000 nM) | -15.7 | -12 | -0.492 | -5.24 | 12.6 | 11.9 | -1.39 | 19.4 | -2.9 | 22.4 | 9.45 | -4.38 | -17.7 | 12.1 | 23.9 |
| CC(C)C[C@H](NC(=O)[C@H](Cc1ccccc1)NC(=O)c1cnccn1)B(O)O [Bortezomib] (drug 1000 nM) | 62.6 | 97.9 | 64.6 | 98.7 | 74.1 | 92.4 | 73.6 | 94.5 | 93.6 | 71 | 64 | 98.8 | 96.2 | 71.5 | 97.2 |
| COc1cc(Nc2c(C#N)cnc3cc(OCCCN4CCN(C)CC4)c(OC)cc23)c(Cl)cc1Cl [Bosutinib] (drug 10000 nM) | 83.1 | 95 | 57.5 | 95 | 81.6 | 78.4 | 50.7 | 41.6 | 66.7 | 17.9 | 28.8 | 96.4 | 77.5 | 22.6 | 72 |
| Cc1cc2c(F)c(Oc3ncnn4cc(OC[C@@H](C)O)c(C)c34)ccc2[nH]1 [Brivanib] (drug 1000 nM) | -13 | -17.5 | 3.72 | 7.57 | -12.6 | -7.3 | -13 | -14.5 | -3.49 | -7.74 | -7.64 | 6.47 | -3.24 | -6.33 | 2.73 |
| CCC/C=C/C=C/C(=O)O[C@H]1/C(=C/C(=O)OC)C[C@H]2C[C@H]([C@@H](C)O)OC(=O)C[C@H](O)C[C@@H]3C[C@H](OC(C)=O)C(C)(C)[C@](O)(C[C@@H]4C/C(=C/C(=O)OC)C[C@H](/C=C/C(C)(C)[C@]1(O)O2)O4)O3 [Bryostatin 1] (drug 100 nM) | 0.0548 | -6.89 | 3.49 | -0.0992 | 3.91 | 14.2 | 9.71 | -5.82 | -5.94 | 12.6 | -3.78 | -4.14 | -13.3 | 10.2 | 10.5 |
| Nc1cc(C(F)(F)F)c(-c2cc(N3CCOCC3)nc(N3CCOCC3)n2)cn1 [Buparlisib (BKM-120)] (drug 10000 nM) | 64.5 | 88.6 | 61.8 | 89.9 | 72.8 | 72.2 | 42.8 | 75.8 | 77.6 | 57.9 | 48.8 | 93.8 | 71.3 | 57 | 70.7 |
| CS(=O)(=O)OCCCCOS(C)(=O)=O [Busulfan] (drug 100000 nM) | 1.99 | 8.07 | -11.6 | 1 | -5.52 | 10.5 | -1.89 | -1.41 | -0.37 | 1.38 | -1.26 | -2.76 | 6.32 | -5.35 | 1.25 |
| CC[C@H](Nc1ncnc2[nH]cnc12)c1nc2cccc(F)c2c(=O)n1-c1ccccc1 [CAL-101] (drug 10000 nM) | 4.44 | 17 | 57.3 | 5.84 | 22.4 | 21.3 | -0.638 | 15.2 | 13.7 | 45.9 | 45 | 8.87 | 33.6 | 50.8 | 24.5 |
| C#Cc1cccc(Nc2ncnc3cc(OC)c(OCCCCCCC(=O)NO)cc23)c1 [CUDC-101] (drug 10000 nM) | 93.9 | 97 | 54.5 | 94.4 | 89.6 | 94.5 | 48.3 | 95.1 | 94.8 | 42.7 | 51.5 | 95.6 | 76.8 | 42.4 | 88.4 |
| COc1cc2nccc(Oc3ccc(NC(=O)C4(C(=O)Nc5ccc(F)cc5)CC4)cc3)c2cc1OC [Cabozantinib (XL184)] (drug 1000 nM) | -10.4 | 16 | 2.11 | 7.72 | 5.85 | 11.3 | 1.76 | -4.29 | -1.77 | -14.6 | -2.98 | 22.4 | 10.4 | 6.25 | 2.69 |
| CC[C@@]1(O)C(=O)OCc2c1cc1n(c2=O)Cc2cc3ccccc3nc2-1 [Camptothecin] (drug 5000 nM) | -9.54 | 0.861 | 57.9 | -15.3 | 85.5 | 87.2 | 49.1 | 61 | 28.7 | 52.9 | 41.1 | 4.82 | 35.6 | 54.1 | 49.6 |
| C=CC(=O)Nc1cc2c(Nc3ccc(F)c(Cl)c3)ncnc2cc1OCCCN1CCOCC1 [Canertinib] (drug 10000 nM) | 80.1 | 92.3 | 44.3 | 93.5 | 64.2 | 71.1 | 28 | 38.9 | 24.2 | 41.4 | 35.5 | 90 | 63.2 | 37.1 | 46.6 |
| CCCCCOC(=O)Nc1nc(=O)n([C@@H]2O[C@H](C)[C@@H](O)[C@H]2O)cc1F [Capecitabine] (drug 10000 nM) | -9.89 | -7.23 | 7.55 | -6.54 | -4.69 | -0.939 | -12 | -17.6 | -17 | 24.8 | 0.654 | 0.103 | 2.81 | 11.1 | 1.61 |
| O=C(O)C1(C(=O)O)CCC1.[NH2-].[NH2-].[Pt+2] [Carboplatin] (drug 10000 nM) | -12.2 | -19 | -0.671 | 3.89 | 1.69 | 6.48 | -6.52 | -16.3 | -18 | -16.2 | -1.87 | -1.28 | 1.93 | 2.36 | -4.98 |
| CC(C)C[C@H](NC(=O)[C@H](CCc1ccccc1)NC(=O)CN1CCOCC1)C(=O)N[C@@H](Cc1ccccc1)C(=O)N[C@@H](CC(C)C)C(=O)[C@@]1(C)CO1 [Carfilzomib] (drug 1000 nM) | 79.9 | 96.2 | 75.9 | 93.7 | 91.8 | 96.5 | 92.7 | 86.2 | 91.1 | 76.9 | 85.7 | 97.8 | 96.8 | 80.2 | 96.3 |
| O=NN(CCCl)C(=O)NCCCl [Carmustine] (drug 10000 nM) | -6.34 | -3.07 | 0.516 | 4.36 | -2.85 | 5.33 | -12.7 | -12.6 | -5.73 | -12.9 | -8.4 | -0.31 | 2.64 | -2.37 | 0.948 |
| COc1cc2c(Oc3ccc4[nH]c(C)cc4c3F)ncnc2cc1OCCCN1CCCC1 [Cediranib (AZD2171, Recentin)] (drug 1000 nM) | 1.02 | 39.4 | 5.44 | 6.19 | 11.5 | 2.46 | 1.79 | 2.79 | 7.26 | 9.26 | 4.94 | 15.2 | 2.12 | 4.06 | 2.94 |
| Cc1ccc(-c2cc(C(F)(F)F)nn2-c2ccc(S(N)(=O)=O)cc2)cc1 [Celecoxib] (drug 10000 nM) | -0.849 | 1.11 | -10.3 | 4.93 | 15.2 | 5.23 | 4.31 | -3.21 | 5.57 | -12 | 11.6 | 12.6 | 18.3 | 4.71 | 2.27 |
| O=C(O)CCCc1ccc(N(CCCl)CCCl)cc1 [Chlorambucil] (drug 10000 nM) | -5.56 | -5.81 | -11.1 | -11.1 | 2.18 | -4.5 | -8.39 | -20.9 | 1.91 | -4.67 | -2.49 | -1.33 | 9.69 | 3.96 | -7.66 |
| CCN(CC)CCCC(C)Nc1ccnc2cc(Cl)ccc12 (stereo not given) [Chloroquine] (drug 990000 nM) | -6.4 | -13.3 | 6.98 | 7.83 | -2.81 | 0.449 | -1.25 | -0.514 | -3.72 | -2.67 | -3.36 | 19 | -12.2 | 0.712 | 3.21 |
| N.N.[Cl][Pt][Cl] [Cisplatin] (drug 10000 nM) | -3.72 | -4.53 | -1.7 | 2.59 | -20.9 | 0.697 | 3.44 | -16.1 | -8.72 | -8.66 | -5.04 | -9.25 | 8.3 | 3.43 | -3.02 |
| Nc1nc(Cl)nc2c1ncn2[C@H]1C[C@H](O)[C@@H](CO)O1 [Cladribine] (drug 1000 nM) | -15.8 | -9.47 | 20 | -11.6 | -15.2 | 6.39 | -0.292 | -1.69 | -2.3 | 15.2 | 15.8 | -9.7 | 11.4 | 21 | 25.8 |
